Measurements from ChEMBL document CHEMBL1255393, “Impact of different factors on the probability of clinical response in tigecycline-treated patients with intra-abdominal infections” (Antimicrob Agents Chemother, 2010).
Converted amounts (≈) assume the structure as drawn.

Assays:
[1] = Ratio of AUC in intra-abdominal infection patient at 100 mg followed by 50 mg every 12 hrs for 5 to 14 days to MIC for Enterobacteriaceae isolate; format: functional
[2] = Serum clearance in intra-abdominal infection patient at 100 mg followed by 50 mg every 12 hrs for 5 to 14 days; format: ADME, organism-based; conditions: human
[3] = AUC in intra-abdominal infection patient at 100 mg followed by 50 mg every 12 hrs for 5 to 14 days; format: ADME, organism-based; conditions: human, plasma
Enterobacteriaceae = assay: Antibacterial activity against Enterobacteriaceae isolate obtained from intra-abdominal infection patient; format: functional

With `CN(C)c1cc(NC(=O)CNC(C)(C)C)c(O)c2c1C[C@H]1C[C@H]3[C@H](N(C)C)C(O)=C(C(N)=O)C(=O)[C@@]3(O)C(O)=C1C2=O` [TIGECYCLINE] the Ratio [1] was 21.8, the clearance [2] was 268 mL/min and the AUC [3] was 6190 ng·h/mL. It also gave an MIC50 (Enterobacteriaceae) of 0.25 µg/mL (≈ 0.427 µM) and an MIC90 (Enterobacteriaceae) of 1 µg/mL (≈ 1.71 µM).
